Columns and labels:
PI3Kα = biological target: T1, PI3Kα (Homo sapiens, UniProt P42336); assay: kinobeads assay, PI3Kα; format: binding; conditions: 1:1 mix of Jurkat and Ramos cell lysates, read-out: Inhibition values (IC50 in μM) as determined in the kinobeads assay, PI3Kα
T1 construct: endogenous in cells; host or cells: Jurkat (ATCC TIB-152, clone E6-1) and Ramos (ATCC CRL-1596), 1:1 lysate mix
Protocol: (§1) The compounds of the present invention as described were tested in the mTOR kinobeads assay as described below. Briefly, test compounds (at various concentrations) and the affinity matrix (1:1 mixture of beads with immobilized phenylthiazole ligand 1 and beads with immobilized phenylmorpholin-chromen ligand; WO 2009/098021) were added to cell lysate aliquots and allowed to bind to the proteins in the lysate sample. After the incubation time the beads with captured proteins were separated from the lysate. Bound proteins were then eluted and the presence of mTOR, PI3Kα, PI3Kβ, PI3Kγ, PI3Kδ and DNA-dependent protein kinase (DNA-PK) was detected and quantified using a specific antibody in a dot blot procedure and the Odyssey infrared detection system. Dose response curves for individual kinases were generated and IC50 values calculated. Kinobeads assays for PI3 kinases (WO-A 2008/015013) and for kinase selectivity profiling (WO 2009/098021) have been previously described.
(§2) Washing of Affinity Matrix
(§3) The affinity matrix was washed two times with 15 ml of 1×DP buffer containing 0.2% NP40 (IGEPAL® CA-630, Sigma, #13021) and then resupended in 5.5 ml of 1×DP buffer containing 0.2% NP40 (10% beads slurry).
(§4) 5×DP buffer: 250 mM Tris-HCl pH 7.4, 25% Glycerol, 7.5 mM MgCl2, 750 mM NaCl, 5 mM Na3VO4, filter the 5×-lysis buffer through 0.22 μm filter and store in aliquots at −80° C. The 5×DP buffer is diluted to 1×DP buffer containing 1 mM DTT and 25 mM NaF.
(§5) Preparation of Test Compounds
(§6) Stock solutions of test compounds were prepared in DMSO. In a 96 well plate 30 μl solution of diluted test compounds at 5 mM in DMSO were prepared. Starting with this solution a 1:3 dilution series (9 steps) was prepared. For control experiments (no test compound) a buffer containing 2% DMSO was used. Compound Pi-103 (Calbiochem catalogue number 528100) served as a positive control.
(§7) Cell Culture and Preparation of Cell Lysates
(§8) Jurkat cells (ATCC catalogue number TIB-152 Jurkat, clone E6-1) and Ramos cells (ATCC number CRL-1596) were grown in 1 litre Spinner flasks (Integra Biosciences, #182101) in suspension in RPMI 1640 medium (Invitrogen, #21875-034) supplemented with 10% Fetal Bovine Serum (Invitrogen) at a density between 0.15×10^6 and 1.2×10^6 cells/ml. Cells were harvested by centrifugation, washed once with 1×PBS buffer (Invitrogen, #14190-094) and cell pellets were frozen in liquid nitrogen and subsequently stored at −80° C.
(§9) Cells were homogenized in a Potter S homogenizer in lysis buffer: 50 mM Tris-HCl, 0.8% NP40, 5% glycerol, 150 mM NaCl, 1.5 mM MgCl2, 25 mM NaF, 1 mM sodium vanadate, 1 mM DTT, pH 7.5. One complete EDTA-free tablet (protease inhibitor cocktail, Roche Diagnostics, 1873580) per 25 ml buffer was added. The material was dounced 10 times using a mechanized POTTER S, transferred to 50 ml falcon tubes, incubated for 30 minutes on ice and spun down for 10 min at 20,000 g at 4° C. (10,000 rpm in Sorvall SLA600, precooled). The supernatant was transferred to an ultracentrifuge (UZ)-polycarbonate tube (Beckmann, 355654) and spun for 1 hour at 100.000 g at 4° C. (33.500 rpm in Ti50.2, precooled). The supernatant was transferred again to a fresh 50 ml falcon tube, the protein concentration was determined by a Bradford assay (BioRad) and samples containing 50 mg of protein per aliquot were prepared. The samples were immediately used for experiments or frozen in liquid nitrogen and stored frozen at −80° C.
(§10) Cell lysate (approximately 50 mg protein per plate) was thawed in a water bath at room temperature and then kept on ice. To the thawed cell lysate 1×DP 0.8% NP40 buffer containing protease inhibitors (1 tablet for 25 ml buffer; EDTA-free protease inhibitor cocktail; Roche Diagnostics 1873580) was added in order to reach a final protein concentration of 5 mg/ml total protein. For the kinobeads experiment a 1:1 mix of Jurkat and Ramos cell lysates was used. The diluted cell lysate was stored on ice. […]

PI3Kγ = biological target: T2, PI3Kγ (Homo sapiens, UniProt P48736); assay: kinobeads assay, PI3Kγ; format: binding; conditions: 1:1 mix of Jurkat and Ramos cell lysates, read-out: Inhibition values (IC50 in μM) as determined in the kinobeads assay, PI3Kγ
T2 construct: endogenous in cells; host or cells: Jurkat (ATCC TIB-152, clone E6-1) and Ramos (ATCC CRL-1596), 1:1 lysate mix
Protocol: as §1, §2, §3, §4, §5, §6, §7, §8, §9, §10

PI3Kδ = biological target: T3, PI3Kδ (Homo sapiens, UniProt O00329); assay: kinobeads assay, PI3Kδ; format: binding; conditions: 1:1 mix of Jurkat and Ramos cell lysates, read-out: Inhibition values (IC50 in μM) as determined in the kinobeads assay, PI3Kδ
T3 construct: endogenous in cells; host or cells: Jurkat (ATCC TIB-152, clone E6-1) and Ramos (ATCC CRL-1596), 1:1 lysate mix
Protocol: as §1, §2, §3, §4, §5, §6, §7, §8, §9, §10

mTOR = biological target: T4, mTOR (Homo sapiens, UniProt P42345); assay: mTOR kinobeads assay (competition binding in cell lysate, dot blot detection); conditions: 1:1 mix of Jurkat and Ramos cell lysates, read-out: Inhibition values (IC50 in μM) as determined in the kinobeads assay, mTor
T4 construct: endogenous in cells; host or cells: Jurkat (ATCC TIB-152, clone E6-1) and Ramos (ATCC CRL-1596), 1:1 lysate mix
Protocol: Determination of the Effect of the Compounds According to the Invention on mTOR
as §1, §2, §3, §4, §5, §6, §7, §8, §9
as §10, with “used.” for “used. The diluted cell lysate was stored on ice.”

[1] = biological target: T5, DNA-dependent protein kinase (DNA-PK) (Homo sapiens, UniProt P78527); assay: kinobeads assay, DNA-PK; format: binding; conditions: 1:1 mix of Jurkat and Ramos cell lysates, read-out: Inhibition values (IC50 in μM) as determined in the kinobeads assay, DNA-PK
T5 construct: endogenous in cells; host or cells: Jurkat (ATCC TIB-152, clone E6-1) and Ramos (ATCC CRL-1596), 1:1 lysate mix
Protocol: as §1, §2, §3, §4, §5, §6, §7, §8, §9, §10

PI3Kβ = biological target: T6, PI3Kβ (Homo sapiens, UniProt P42338); assay: kinobeads assay, PI3Kβ; format: binding; conditions: 1:1 mix of Jurkat and Ramos cell lysates, read-out: Inhibition values (IC50 in μM) as determined in the kinobeads assay, PI3Kβ
T6 construct: endogenous in cells; host or cells: Jurkat (ATCC TIB-152, clone E6-1) and Ramos (ATCC CRL-1596), 1:1 lysate mix
Protocol: as §1, §2, §3, §4, §5, §6, §7, §8, §9, §10

T2 sequence (P48736 whole entry): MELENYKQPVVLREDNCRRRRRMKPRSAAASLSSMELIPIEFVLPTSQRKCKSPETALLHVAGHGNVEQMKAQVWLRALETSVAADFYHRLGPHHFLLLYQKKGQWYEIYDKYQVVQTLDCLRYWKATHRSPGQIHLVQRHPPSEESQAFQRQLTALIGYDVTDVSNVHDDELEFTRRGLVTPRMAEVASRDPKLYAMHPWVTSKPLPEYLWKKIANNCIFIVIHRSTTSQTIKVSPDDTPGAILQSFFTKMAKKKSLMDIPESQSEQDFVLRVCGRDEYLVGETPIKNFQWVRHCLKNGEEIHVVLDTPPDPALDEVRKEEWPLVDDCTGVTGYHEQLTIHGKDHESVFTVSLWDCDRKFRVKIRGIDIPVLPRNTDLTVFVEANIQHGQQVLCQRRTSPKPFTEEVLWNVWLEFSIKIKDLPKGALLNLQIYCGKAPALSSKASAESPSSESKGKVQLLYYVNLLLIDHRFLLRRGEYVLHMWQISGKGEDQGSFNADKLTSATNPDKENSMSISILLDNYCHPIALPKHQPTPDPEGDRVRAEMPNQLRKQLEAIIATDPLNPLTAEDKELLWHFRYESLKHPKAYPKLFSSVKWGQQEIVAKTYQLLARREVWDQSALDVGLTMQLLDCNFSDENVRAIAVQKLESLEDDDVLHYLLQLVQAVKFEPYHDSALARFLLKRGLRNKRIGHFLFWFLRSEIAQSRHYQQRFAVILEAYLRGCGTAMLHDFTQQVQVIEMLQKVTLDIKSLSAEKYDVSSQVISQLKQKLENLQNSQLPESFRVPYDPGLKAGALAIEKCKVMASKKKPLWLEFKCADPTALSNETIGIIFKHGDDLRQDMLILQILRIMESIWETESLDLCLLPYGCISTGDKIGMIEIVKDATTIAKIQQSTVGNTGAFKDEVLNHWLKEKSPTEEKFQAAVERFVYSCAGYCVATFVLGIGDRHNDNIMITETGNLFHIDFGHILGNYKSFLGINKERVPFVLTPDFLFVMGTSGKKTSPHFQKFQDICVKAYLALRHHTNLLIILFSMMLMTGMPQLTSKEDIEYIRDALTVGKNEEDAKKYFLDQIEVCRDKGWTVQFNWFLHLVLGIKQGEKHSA
T6 sequence (P42338 whole entry): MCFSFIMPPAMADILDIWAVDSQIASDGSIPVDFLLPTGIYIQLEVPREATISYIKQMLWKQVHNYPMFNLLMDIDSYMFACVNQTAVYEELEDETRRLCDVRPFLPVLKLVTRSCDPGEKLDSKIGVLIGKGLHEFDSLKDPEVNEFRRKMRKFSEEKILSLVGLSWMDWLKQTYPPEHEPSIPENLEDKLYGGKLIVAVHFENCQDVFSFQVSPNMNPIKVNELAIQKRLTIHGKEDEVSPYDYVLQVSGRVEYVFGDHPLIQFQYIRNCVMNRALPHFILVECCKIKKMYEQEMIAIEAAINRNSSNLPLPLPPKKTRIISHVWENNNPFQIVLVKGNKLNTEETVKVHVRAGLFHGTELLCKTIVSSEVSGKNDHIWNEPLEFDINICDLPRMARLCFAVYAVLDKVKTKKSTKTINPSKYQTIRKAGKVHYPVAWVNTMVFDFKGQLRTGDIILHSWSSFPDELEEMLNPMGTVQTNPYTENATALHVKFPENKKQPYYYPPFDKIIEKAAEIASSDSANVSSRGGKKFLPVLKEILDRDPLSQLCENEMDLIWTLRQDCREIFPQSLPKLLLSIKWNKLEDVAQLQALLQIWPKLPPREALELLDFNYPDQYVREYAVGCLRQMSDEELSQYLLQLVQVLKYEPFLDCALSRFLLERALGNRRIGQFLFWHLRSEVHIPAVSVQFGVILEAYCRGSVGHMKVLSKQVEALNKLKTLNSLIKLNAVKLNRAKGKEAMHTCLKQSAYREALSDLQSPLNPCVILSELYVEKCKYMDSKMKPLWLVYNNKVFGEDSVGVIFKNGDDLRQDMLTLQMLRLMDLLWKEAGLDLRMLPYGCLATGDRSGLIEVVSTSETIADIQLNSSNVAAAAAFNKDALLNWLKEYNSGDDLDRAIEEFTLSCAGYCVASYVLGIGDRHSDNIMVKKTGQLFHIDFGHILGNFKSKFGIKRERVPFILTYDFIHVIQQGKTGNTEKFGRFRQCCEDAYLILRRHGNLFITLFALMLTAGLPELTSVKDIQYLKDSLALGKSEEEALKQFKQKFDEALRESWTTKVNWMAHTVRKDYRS
T6 sequence (P27986 whole entry partner): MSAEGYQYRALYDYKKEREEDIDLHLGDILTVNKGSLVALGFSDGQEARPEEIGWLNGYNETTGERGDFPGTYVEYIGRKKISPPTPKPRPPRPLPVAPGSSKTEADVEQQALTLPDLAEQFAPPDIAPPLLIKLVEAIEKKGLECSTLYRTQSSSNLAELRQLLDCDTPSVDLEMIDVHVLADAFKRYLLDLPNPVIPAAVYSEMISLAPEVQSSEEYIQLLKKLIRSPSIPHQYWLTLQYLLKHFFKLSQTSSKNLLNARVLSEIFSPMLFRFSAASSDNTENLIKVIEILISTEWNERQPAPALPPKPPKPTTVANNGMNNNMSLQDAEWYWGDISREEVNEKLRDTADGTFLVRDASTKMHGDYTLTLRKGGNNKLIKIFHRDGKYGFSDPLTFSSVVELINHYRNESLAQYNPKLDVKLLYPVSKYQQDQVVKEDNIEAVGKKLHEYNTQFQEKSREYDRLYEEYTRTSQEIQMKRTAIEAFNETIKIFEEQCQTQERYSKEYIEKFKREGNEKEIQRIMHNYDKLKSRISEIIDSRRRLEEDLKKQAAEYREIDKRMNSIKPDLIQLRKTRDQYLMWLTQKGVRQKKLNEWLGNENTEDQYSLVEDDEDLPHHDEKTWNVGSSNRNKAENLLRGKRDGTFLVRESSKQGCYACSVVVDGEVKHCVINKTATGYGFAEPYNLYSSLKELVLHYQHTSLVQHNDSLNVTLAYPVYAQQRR
T3 sequence (O00329 whole entry): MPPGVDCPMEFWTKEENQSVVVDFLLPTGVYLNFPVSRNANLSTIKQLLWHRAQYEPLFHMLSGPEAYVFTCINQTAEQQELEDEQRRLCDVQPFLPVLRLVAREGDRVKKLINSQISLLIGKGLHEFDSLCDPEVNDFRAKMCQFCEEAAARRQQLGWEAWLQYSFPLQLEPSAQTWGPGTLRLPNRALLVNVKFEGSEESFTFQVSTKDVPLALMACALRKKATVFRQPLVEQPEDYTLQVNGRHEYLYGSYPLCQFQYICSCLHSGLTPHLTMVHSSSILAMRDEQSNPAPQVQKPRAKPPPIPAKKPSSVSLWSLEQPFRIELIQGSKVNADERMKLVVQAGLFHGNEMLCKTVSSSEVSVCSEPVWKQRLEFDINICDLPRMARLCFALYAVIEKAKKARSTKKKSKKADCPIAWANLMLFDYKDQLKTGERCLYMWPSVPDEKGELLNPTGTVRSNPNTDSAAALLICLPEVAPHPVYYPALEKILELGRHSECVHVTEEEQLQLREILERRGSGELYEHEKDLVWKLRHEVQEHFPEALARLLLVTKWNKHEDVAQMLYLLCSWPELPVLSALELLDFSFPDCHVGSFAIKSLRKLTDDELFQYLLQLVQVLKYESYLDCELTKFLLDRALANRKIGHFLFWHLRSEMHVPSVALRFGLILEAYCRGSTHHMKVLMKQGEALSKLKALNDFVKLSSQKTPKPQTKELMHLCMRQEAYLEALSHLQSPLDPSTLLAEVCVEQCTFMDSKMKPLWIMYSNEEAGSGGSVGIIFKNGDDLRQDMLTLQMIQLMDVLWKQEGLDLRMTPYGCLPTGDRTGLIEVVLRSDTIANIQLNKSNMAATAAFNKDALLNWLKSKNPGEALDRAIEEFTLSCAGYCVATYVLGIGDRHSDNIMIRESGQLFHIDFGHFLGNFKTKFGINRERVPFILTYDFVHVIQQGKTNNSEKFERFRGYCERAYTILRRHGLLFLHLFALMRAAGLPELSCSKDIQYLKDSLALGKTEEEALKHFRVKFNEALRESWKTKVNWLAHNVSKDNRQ
T3 sequence (P27986 whole entry partner): as the sequence (P27986 whole entry partner) above
T1 sequence (P42336 whole entry): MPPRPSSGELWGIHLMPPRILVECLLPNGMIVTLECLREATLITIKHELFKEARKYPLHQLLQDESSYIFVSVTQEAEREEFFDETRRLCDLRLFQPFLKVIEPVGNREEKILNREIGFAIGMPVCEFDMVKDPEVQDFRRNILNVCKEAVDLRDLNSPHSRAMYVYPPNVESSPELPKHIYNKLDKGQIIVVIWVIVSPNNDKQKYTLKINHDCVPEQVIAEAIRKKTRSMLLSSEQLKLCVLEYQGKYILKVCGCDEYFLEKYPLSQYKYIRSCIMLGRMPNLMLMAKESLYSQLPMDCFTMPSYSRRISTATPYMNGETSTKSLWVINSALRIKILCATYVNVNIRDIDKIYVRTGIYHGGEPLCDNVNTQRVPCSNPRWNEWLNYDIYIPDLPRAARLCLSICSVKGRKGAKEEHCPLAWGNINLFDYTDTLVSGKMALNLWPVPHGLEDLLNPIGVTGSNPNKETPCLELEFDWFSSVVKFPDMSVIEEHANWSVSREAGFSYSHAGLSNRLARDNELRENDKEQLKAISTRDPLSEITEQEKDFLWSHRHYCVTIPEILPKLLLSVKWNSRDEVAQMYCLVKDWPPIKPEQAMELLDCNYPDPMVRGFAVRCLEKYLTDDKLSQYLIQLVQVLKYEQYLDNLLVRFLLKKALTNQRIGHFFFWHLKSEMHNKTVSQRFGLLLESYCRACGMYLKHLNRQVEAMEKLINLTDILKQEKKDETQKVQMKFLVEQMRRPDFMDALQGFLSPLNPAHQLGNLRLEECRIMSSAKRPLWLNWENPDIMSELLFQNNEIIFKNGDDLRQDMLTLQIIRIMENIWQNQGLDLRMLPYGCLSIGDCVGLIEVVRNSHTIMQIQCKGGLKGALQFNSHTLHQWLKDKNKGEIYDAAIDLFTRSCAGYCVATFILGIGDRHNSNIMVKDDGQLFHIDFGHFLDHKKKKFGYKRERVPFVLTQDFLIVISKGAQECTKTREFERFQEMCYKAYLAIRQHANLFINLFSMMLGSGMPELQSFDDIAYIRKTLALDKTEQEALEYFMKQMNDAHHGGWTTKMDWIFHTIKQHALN
T1 sequence (P27986 whole entry partner): as the sequence (P27986 whole entry partner) above

Compound	IC50 (PI3Kα) [µM]	IC50 (PI3Kγ) [µM]	IC50 (PI3Kδ) [µM]	IC50 (mTOR) [µM]	IC50 [1] [µM]	IC50 (PI3Kβ) [µM]
C[C@H]1COCCN1c1nc2c(c(-c3ccc(NC(=O)NC4CC4)cc3)n1)CN(C(=O)CN)C2 [Example 28, (S)-1-(4-(6-(2-aminoacetyl)-2-(3-methylmorpholino)-6,7-dihydro-5H-pyrrolo[3,4-d]pyrimidin-4-yl)phenyl)-3-cyclopropylurea]	10 to 100	10 to 100	10 to 100	1 to 10	> 100	10 to 100
C[C@H]1COCCN1c1nc2c(c(-c3ccc(NC(=O)NC4CC4)cc3)n1)CN(C(=O)CCCN)C2 [Example 30, (S)-1-(4-(6-(4-aminobutanoyl)-2-(3-methylmorpholino)-6,7-dihydro-5H-pyrrolo[3,4-d]pyrimidin-4-yl)phenyl)-3-cyclopropylurea]	10 to 100	> 100	10 to 100	1 to 10	> 100	10 to 100
COCCC(=O)N1Cc2nc(N3CCOC[C@@H]3C)nc(-c3ccc(NC(=O)NC4CC4)cc3)c2C1 [Example 31, (S)-1-cyclopropyl-3-(4-(6-(3-methoxypropanoyl)-2-(3-methylmorpholino)-6,7-dihydro-5H-pyrrolo[3,4-d]pyrimidin-4-yl)phenyl)urea]	> 100	> 100	10 to 100	0.1 to 1	> 100	10 to 100
C[C@H]1COCCN1c1nc2c(c(-c3ccc(NC(=O)NC4CC4)cc3)n1)CN(C(=O)CCCN(C)C)C2 [Example 32, (S)-1-cyclopropyl-3-(4-(6-(4-(dimethylamino)butanoyl)-2-(3-methylmorpholino)-6,7-dihydro-5H-pyrrolo[3,4-d]pyrimidin-4-yl)phenyl)urea]	> 100	10 to 100	10 to 100	1 to 10	10 to 100	1 to 10
C[C@H]1COCCN1c1nc2c(c(-c3ccc(NC(=O)NC4CC4)cc3)n1)CN(C(=O)C1CCCO1)C2 (stereo partly drawn) [Example 33, 1-cyclopropyl-3-(4-(2-((S)-3-methylmorpholino)-6-(tetrahydrofuran-2-carbonyl)-6,7-dihydro-5H-pyrrolo[3,4-d]pyrimidin-4-yl)phenyl)urea]	> 100	> 100	10 to 100	1 to 10	> 100	10 to 100

The remaining lines, values ahead:

IC50 (PI3Kα) [µM]	IC50 (PI3Kγ) [µM]	IC50 (PI3Kδ) [µM]	IC50 (mTOR) [µM]	IC50 [1] [µM]	IC50 (PI3Kβ) [µM]	Compound
10 to 100	10 to 100	10 to 100	1 to 10	> 100	10 to 100	C[C@H]1COCCN1c1nc2c(c(-c3ccc(NC(=O)NC4CC4)cc3)n1)CN(C(=O)CCN)C2 [Example 29, (S)-1-(4-(6-(3-aminopropanoyl)-2-(3-methylmorpholino)-6,7-dihydro-5H-pyrrolo[3,4-d]pyrimidin-4-yl)phenyl)-3-cyclopropylurea]
10 to 100	10 to 100	10 to 100	0.1 to 1	> 100	10 to 100	CC(C)N1Cc2nc(N3CCOC[C@@H]3C)nc(-c3ccc(NC(=O)NCCO)cc3)c2C1 [Example 34, (S)-1-(2-hydroxyethyl)-3-(4-(6-isopropyl-2-(3-methylmorpholino)-6,7-dihydro-5H-pyrrolo[3,4-d]pyrimidin-4-yl)phenyl)urea 2,2,2-trifluoroacetate]
> 100	> 100	> 100	1 to 10	> 100	> 100	C[C@H]1COCCN1c1nc2c(c(-c3ccc(NC(=O)NC4CC4)cc3)n1)CN(S(=O)(=O)C1CC1)C2 [Example 35, (S)-1-cyclopropyl-3-(4-(6-(cyclopropylsulfonyl)-2-(3-methylmorpholino)-6,7-dihydro-5H-pyrrolo[3,4-d]pyrimidin-4-yl)phenyl)urea]

— patent US20140163023A1, “DIHYDROPYRROLO PYRIMIDINE DERIVATIVES AS MTOR INHIBITORS” (Cellzome Limited, priority 2011, published 2014)
